Tests used:
plasmine humaine [1] = target: T1, plasmine humaine (Homo sapiens, UniProt P00747); test: amidolytic activity of plasmin on synthetic substrate S-2251; format: biochemical
T1 construct: connus pour interagir avec la plasmine via son domaine kringle V; testé in vitro sur l'activité amidolytique de la plasmine à l'aide d'un substrat synthétique (S-2251, Chromogénix)
Procedure: L'effet de ces différentes fractions et produits purs a donc été testé in vitro sur l'activité amidolytique de la plasmine à l'aide d'un substrat synthétique (S-2251, Chromogénix).
Les fractions ou composés purs issus de l'extraction sont solubilisés avant utilisation dans du diméthylsulfoxyde (DMSO) à une concentration de stockage de 20 mg/mL. La conservation est effectuée à -80°C. 12 nM de plasmine humaine sont pré-incubés en absence et en présence de concentrations croissantes (0 à 200 µg/mL) des différentes fractions et produits dans un tampon Tris-HCl 100 mM pH 7,5. La réaction est déclenchée par addition de 0,3 mM de S-2251. L'hydrolyse du S-2251 est suivie par mesure de l'absorbance du para-nitroaniline à 405 nm. La courbe représentant les variations d'absorbance en fonction du temps est tracée et la vitesse initiale de la réaction est déterminée par calcul de la pente de la tangente à l'origine. Le rapport Vi/Vo est calculé, où Vo représente la vitesse initiale en absence d'effecteur et Vi cette vitesse en présence d'un effecteur, et la courbe Vi/Vo en fonction de la concentration en en glycolipides est tracée.

plasmine humaine [2] = target: T1, plasmine humaine; test: activation of proMMP-3 by plasmin in vitro (western blot); format: biochemical; settings: 25 µg/mL; 65 nM plasmin, 100 nM proMMP-3; Figure 1A-4
Procedure: (§1) • La Figure 1 représente la modulation de l'activation des proMMP-3 (Figures 1A et 1B) et proMMP-1 (Figure 1C) in vitro comme en culture par des extraits glycolipidiques du gluten de blé. • Figure 1A : 100 nM de proMMP-3 (Figure 1A-1) sont incubés avec 65 nM de plasmine en absence (Figure 1A-2) ou en présence de glycolipides (Figure 1A-3 et 4), à la concentration de 50µg/mL pour M1-Sucres (Figure 1A-3) et 25 µg/mL pour ED 23-11 (Figure 1A-4). • Figure 1B : des fibroblastes dermiques sont ensemencés en plaque 24 puits à raison de […] cellules par puits jusque confluence. Après une mise au repos de 18 heures, les cellules sont incubées en présence (Figure 1B-2, 3 et 4) ou non (Figure 1B-1) de 2,5 µg/mL de plasmine ainsi que des glycolipides M1(-Sucres) (Figure 1B-3) et ED 23-11 (Figure 1B-4) aux mêmes concentrations que précédemment. • Figure 1C : des fibroblastes dermiques sont ensemencés en plaque 24 puits à raison de […] cellules par puits jusque confluence. Après une mise au repos de 18 heures, les cellules sont incubées en présence (Figure 1C-2, 3 et 4) ou non (Figure 1C-1) de 2,5 µg/mL de plasmine ainsi que des glycolipides M1(-Sucres) (Figure 1C-3) et ED 23-11 (Figure 1C-4) aux mêmes concentrations que précédemment. Dans l'ensemble des figures 1A, 1B et 1C, la réaction est arrêtée aux temps indiqués par addition de 0,3 mg/ml d'aprotinine. […]

proMMP-1 = test: activation of proMMP-1 by plasmin in cultured dermal fibroblasts (western blot); format: cell-based; settings: 25 µg/mL; 2,5 µg/mL plasmin; Figure 1C-4
Procedure: as §1

[3] = tested on: kératinocytes et fibroblastes dermiques; test: degradation of a fluorescein-labelled type I collagen layer in a UV-A skin photo-ageing co-culture model; format: cell-based; settings: 10 J.cm^-2 UV-A, 15 µg/mL plasminogen, 48 h, versus control without active, read-out: inhibition de ce "vieillissement cutané" (dégradation du tapis de collagène)
proMMP-3 = test: activation of proMMP-3 by plasmin in cultured dermal fibroblasts (western blot); format: cell-based; settings: 25 µg/mL; 2,5 µg/mL plasmin; Figure 1B-4
Procedure: as §1

T1 sequence (P00747 97-580 limits assumed): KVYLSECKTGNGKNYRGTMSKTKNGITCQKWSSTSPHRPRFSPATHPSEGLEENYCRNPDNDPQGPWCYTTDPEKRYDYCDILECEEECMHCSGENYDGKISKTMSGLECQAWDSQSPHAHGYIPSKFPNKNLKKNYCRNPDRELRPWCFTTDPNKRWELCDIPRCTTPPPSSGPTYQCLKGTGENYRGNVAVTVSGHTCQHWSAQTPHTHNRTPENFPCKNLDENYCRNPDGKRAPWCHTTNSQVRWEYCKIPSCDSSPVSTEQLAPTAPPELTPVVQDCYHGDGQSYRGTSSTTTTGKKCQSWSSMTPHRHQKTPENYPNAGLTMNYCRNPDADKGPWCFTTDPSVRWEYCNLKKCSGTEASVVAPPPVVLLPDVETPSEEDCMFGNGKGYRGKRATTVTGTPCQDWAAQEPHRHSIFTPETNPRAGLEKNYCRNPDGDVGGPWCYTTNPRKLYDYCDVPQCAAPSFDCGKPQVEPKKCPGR
T1 sequence (P00747 581-810 limits assumed): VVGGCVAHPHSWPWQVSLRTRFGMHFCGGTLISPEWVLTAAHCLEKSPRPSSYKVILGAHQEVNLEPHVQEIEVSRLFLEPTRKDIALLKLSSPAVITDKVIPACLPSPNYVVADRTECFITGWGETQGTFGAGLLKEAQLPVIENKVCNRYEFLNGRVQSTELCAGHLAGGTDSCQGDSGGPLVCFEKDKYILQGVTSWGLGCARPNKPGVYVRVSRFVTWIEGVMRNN

CCCCC/C=C\C/C=C\CCCCCCCCOC[C@H](CO[C@@H]1O[C@H](COC(=O)CCCCCCCCCCCCCCC)[C@H](O)[C@H](O)[C@H]1O)OCCCCCCCC/C=C\C/C=C\CCCCC [ED23-11, 1,2-di-O-linoléyl-3-O-[6'-O-palmitoyl-β-D-galactopyranosyl]-sn-glycérol]
Plasmine (Vi/Vo) (plasmine humaine [1]; 25 µg/mL, 12 nM plasmin, 0,3 mM S-2251): 2,11 ± 0,16 | Action sur l'activité de la plasmme (Vi/V0) à isoconcentration (plasmine humaine [1]; at isoconcentration): 8,44 | Augmentation d'activité (plasmine humaine [1]; plasmin amidolytic activity, increase from one fractionation step to the next): 2,36 | activation de la proMMP-3 par la plasmine (plasmine humaine [2]): inhibition | activation de la proMMP-1 (proMMP-1): inhibition significative | inhibition at 25 µg/mL [3]: 70% | activation de la proMMP-3 (proMMP-3): inhibition significative
